Experimental data: ChEMBL document CHEMBL5360613, “Unveiling New KRASG12D Inhibitors: A Promising Approach for Pancreatic Cancer Therapy” (ACS Med Chem Lett, 2023)

Target: GTPase KRas (Homo sapiens, UniProt P01116, G12D)
Assay: Inhibition of KRAS G12D mutant in human PANC-1 cells assessed as reduction in phosphorylation of ERK 1/2 level incubated for 3 hrs
Format: cell-based

Chain of GTPase KRas (P01116 whole entry G12D): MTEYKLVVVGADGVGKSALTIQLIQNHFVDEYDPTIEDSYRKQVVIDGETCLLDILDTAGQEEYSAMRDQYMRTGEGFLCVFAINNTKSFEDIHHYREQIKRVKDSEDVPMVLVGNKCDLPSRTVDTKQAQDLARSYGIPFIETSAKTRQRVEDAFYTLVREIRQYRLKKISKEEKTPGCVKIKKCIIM

SMILES | IC50 [nM]
C#Cc1cccc2cc(O)cc(-c3ncc4c(N5C[C@H]6CC[C@@H](C5)N6)cc(OC[C@@]56CCCN5C[C@H](F)C6)nc4c3F)c12 | 9.5
C#Cc1c(F)ccc2cc(O)cc(-c3ncc4c(N5C[C@H]6CC[C@@H](C5)N6)cc(OC[C@@]56CCCN5C[C@H](F)C6)nc4c3F)c12 | 7.9
CCc1c(F)ccc2cc(O)cc(-c3ncc4c(N5C[C@H]6CC[C@@H](C5)N6)cc(C#C[C@@]56CCCN5C[C@H](F)C6)nc4c3F)c12 | 305
Oc1cc(-c2ncc3c(N4C[C@H]5CC[C@@H](C4)N5)cc(OC[C@@]45CCCN4C[C@H](F)C5)nc3c2F)c2c(F)cccc2c1 | 40
CCc1c(F)ccc2cc(O)cc(-c3ncc4c(N5C[C@H]6CC[C@@H](C5)N6)cc(OC[C@@]56CCCN5C[C@H](F)C6)nc4c3F)c12 | 46
C#Cc1c(F)ccc2cc(O)cc(-c3ncc4c(N5C[C@H]6CC[C@@H](C5)N6)cc(C#C[C@@]56CCCN5C[C@H](F)C6)nc4c3F)c12 | 439
Oc1cc(N2CCc3c(nc(OCC45CCCN4CCC5)nc3N3C[C@H]4CC[C@@H](C3)N4)C2)c2c(Cl)cccc2c1 | 15
C#Cc1c(F)ccc2cc(O)cc(-c3ncc4c(N5CC6CCC(C)(C5)N6)cc(OC[C@@]56CCCN5C[C@H](F)C6)nc4c3F)c12 (stereo partly drawn) | 24
